# Results taken from patent EP1708721B1, “MYOCARDIAL PERFUSION IMAGING USING ADENOSINE RECEPTOR AGONISTS” (Gilead Sciences, Inc., priority 2004, dated 2005).
# Columns and labels:
# [1] = test system: awake rats; test: Example 5: sympathoexcitation, heart rate, blood pressure and plasma catecholamines after i.v. bolus; type: in vivo
# Description: The present study was carried out to determine whether CVT-3146, a selective A2A adenosine receptor agonist, causes sympathoexcitation. CVT-3146 (0.31µg/kg-50 µg/kg) was given as a rapid i.v. bolus to awake rats and heart rate (HR) and blood pressure (BP) were monitored. CVT-3146 caused an increase in BP and systolic pressure (SP) at lower doses while at higher doses there was a decrease in BP and SP. […] The increase in HR was evident at the lowest dose of CVT-3146 at which there was no appreciable decrease in BP. ZM241385 (30 µg/kg , N=5), an A2A receptor antagonist, attenuated the decrease in BP (CVT-3146: 14±3%, ZM: 1±1 %) and the increase in HR (CVT: 27±3%, ZM: 18±3%) caused by CVT-3146. Pretreatment with metoprolol (MET, 1 mg/kg, n=5), a beta-blocker, attenuated the increase in HR (CVT: 27±3%, MET: 15±2%), but had no effect on hypotension caused by CVT-3146. In the presence of hexamethonium (HEX, 10 mg/kg, n=5), a ganglionic blocker, the tachycardia was prevented (CVT: 27±3%, HEX: -1±2%), but BP was further reduced (CVT: -11±2%, HEX: -49±5%).
# [2] = test system: subjects (26 men, 9 women); test: Example 6: stress/rest SPECT myocardial perfusion imaging, adenosine versus CVT-3146; type: in vivo, human; settings: SPECT MPI, CVT-3146 400 or 500 mcg IV bolus, A infusion
# Description: To determine the ability of CVT-3146 to produce coronary hyperemia and accurately detect CAD, 35 subjects (26 men, 9 women; 67±10 years) underwent both A and CVT-3146 stress/rest MPI, with 10.0±9.1 days between studies. […] CVT-3146 [400 mcg (n=18), 500 mcg (n=17)] was administered as an IV bolus immediately followed by a saline flush, and then a Tc-99m radiopharmaceutical [sestamibi (n=34), tetrofosmin (n=1)]. SPECT images were uniformly processed, intermixed with control studies (normal and fixed-only defects), and interpreted by three observers in a blinded fashion using a 17-segment model. Quantitative analysis was also performed using 4D MSPECT. In addition to three separate readings, a consensus interpretation was performed and then a direct, same-screen comparison of A and CVT-3146 images undertaken to determine relative differences, using 5 regions per study.
# [3] = test system: humans; test: Example 1: open label study, CBFv by Doppler flow wire after IV bolus in catheterization patients; type: in vivo; settings: intracoronary (IC) injection of 18 µg
# Description: The purpose of this open label study was to determine the magnitude and duration of effect of CVT-3146 (10-500 µg) on CBFv in humans.
# METHODS: Patients undergoing a clinically indicated coronary catheterization with no more than a 70% stenosis in any coronary artery and no more than a 50% stenosis of the study vessel had CBFv determined by Doppler flow wire. Study subject were selected after measuring baseline and peak CBFv after an intracoronary (IC) injection of 18 µg of Ado. Twenty-three patients, who were identified as meeting the study criteria of having a peak to baseline CBFv ratio of ≥ 2.5 in response to Adenosine, received a rapid (≤ 10 sec) peripheral IV bolus of CVT-3146; Doppler signals were stable and interpretable over the time-course of the increase in CBFv in 17 patients.
# [4] = test system: awake dogs; test: Example 8: vasodilator effects in different vascular beds of chronically instrumented dogs; type: in vivo; settings: 250 µg/kg
# Text: In this study the vasodilator effects of CVT-3146 were compared to those of ADO in different vascular beds in awake dogs. Dogs were chronically instrumented for measurements of the blood flow in coronary (CBF), mesenteric (MBF), hind limb (LBF), and renal (RBF) vascular beds, and hemodynamics.
# [5] = in the presence of hexamethonium 10 mg/kg, n=5
# [6] = pretreatment with metoprolol 1 mg/kg, n=5
compound,measurement,setting,value
C[N+](C)(C)CCCCCC[N+](C)(C)C [hexamethonium],BP (change) caused by CVT-3146,[1]; [5],-49±5%
same,tachycardia (HR change) caused by CVT-3146,[1]; [5],-1±2%
Nc1nc(NCCc2ccc(O)cc2)nc2nc(-c3ccco3)nn12 [ZM241385],decrease in BP caused by CVT-3146,"[1]; with ZM241385 30 µg/kg, N=5",1±1%
same,increase in HR caused by CVT-3146,"[1]; with ZM241385 30 µg/kg, N=5",18±3%
COCCc1ccc(OCC(O)CNC(C)C)cc1 (stereo not shown) [metoprolol],effect on hypotension caused by CVT-3146,[1]; [6],no effect
same,increase in HR caused by CVT-3146,[1]; [6],15±2%
Nc1ncnc2c1ncn2[C@@H]1O[C@H](CO)[C@@H](O)[C@H]1O [adenosine],"summed scores following stress, quantitative methods of analysis",[2]; 4D MSPECT,13.7±1.5
same,"summed scores following stress, visual",[2]; 17-segment model,13.9±1.5
same,peak to baseline ratio (CBFv),[3],3.2 ± 0.5
same,duration for CBF above 2-fold of the baseline,[4],16 ± 3 s
